Data from PMC7269481, “ZN148 Is a Modular Synthetic Metallo-β-Lactamase Inhibitor That Reverses Carbapenem Resistance in Gram-Negative Pathogens In Vivo” (Antimicrobial Agents and Chemotherapy, 2020).
Like-named read-outs stand apart in the source and are kept apart here.

Assays:
[1] = molecular target: T1, VIM-2 (Escherichia coli, UniProt Q5U7L7); assay: Zinc content determination by ICP-MS, VIM-2; type: biochemical; conditions: ICP-MS after preincubation
T1 construct: made in house
Method: Inductively coupled plasma mass spectrometry (ICP-MS) was used to investigate the chelating property of ZN148 by measuring the zinc concentration (Zn^66) after incubation of VIM-2 with or without ZN148 in zinc depleted 50 mM HEPES buffer (pH 7.5; Chelex HEPES buffer). The Chelex buffer was prepared by stirring 2 g of Chelex resin (Bio-Rad, Hercules, CA) in 100 ml of 50 mM HEPES buffer (pH 7.5). The resin was subsequently removed by sterile filtration (Merck Millipore, 0.22 μm). VIM-2 (10 g/liter) was diluted to 12.5 mg/liter and mixed with ZN148 at different final concentrations (0, 12.5, 125, and 1250 μM) in Chelex HEPES buffer. All solutions were allowed to incubate for 30 min on ice and subsequently concentrated by centrifugation (at 4,000 × g, 4°C for 25 min) to a volume of 250 μl using centrifugal molecular cutoff filters (Merck Millipore, 10,000 Da). […] Per inhibitor concentration, at least three biological replicates were performed and injected and measured in triplicates. For the MS analysis the kinetic energy discrimination mode with a helium flow rate of 5.7 ml/min, 20 sweeps per reading, and a dwell time of 100 ms/atomic mass unit (AMU) for Zn^66 and 50 ms/AMU for Rh^103 were applied. […] The zinc concentration within the samples was determined based on an external calibration curve (0, 290, 580, 1,160, and 2,320 μg/liter). […]

[2] = tested on: E. coli co-producing MBLs and class A/D serine carbapenemases; assay: Carbapenem MIC, E. coli co-producing MBLs and class A/D serine carbapenemases; type: cell-based; conditions: carbapenem alone or with 50µM ZN148
Method: (§1) MICs of carbapenems alone and in combination with inhibitors were determined by broth microdilution according to the Clinical and Laboratory Standards Institute (CLSI) guidelines ([48]) using either premade plates (TREK Diagnostic Systems/Thermo Fisher Scientific, East Grinstead, United Kingdom) with meropenem or in-house-prepared plates with meropenem, imipenem, and doripenem. ZN148 and other inhibitors were tested at a fixed concentration of 50 μM. Cation-adjusted Mueller-Hinton medium (TREK Diagnostic Systems/Thermo Fisher Scientific; Becton Dickinson, Franklin Lakes, NJ) were used as growth medium. The plates were incubated for 20 h at 37°C. ZN148, ZN222, ZN223, ZN228, and TPA were initially tested in combination with meropenem using two indicator strains: NDM-1-producing K. pneumoniae ([49], [50]) and VIM-2-producing P. aeruginosa ([51]). The activity of ZN148 were subsequently tested against two extended strain collections: (i) in combination with meropenem against MBL-producing Enterobacterales (n = 62), MBL-producing P. aeruginosa (n = 9) and MBL- and class D carbapenemase-coproducing Enterobacterales (n = 5) from the strain collection at the Norwegian National Advisory Unit on Detection of Antimicrobial Resistance and (ii) in combination with meropenem, imipenem, and doripenem against globally collected MBL-producing E. coli (n = 87), K. pneumoniae (n = 85), P. aeruginosa (n = 52), and A. baumannii (n = 6), MBL- and class A/D carbapenemase-coproducing E. coli (n = 11), K. pneumoniae (n = 15) and A. baumannii (n = 7) at IHMA Europe, Sàrl, Switzerland. E. coli ATCC 25922 and P. aeruginosa ATCC 27853 were used as quality control strains. The MBL inhibitors were also tested for intrinsic antibacterial activity against the strains.

[3] = tested on: K. pneumoniae co-producing MBLs and class A/D serine carbapenemases; assay: Carbapenem MIC, K. pneumoniae co-producing MBLs and class D carbapenemases; type: cell-based
Method: as §1

[4] = tested on: class A carbapenemase (KPC)-producing E. coli; assay: Carbapenem MIC, class A carbapenemase-producing E. coli; type: cell-based; conditions: carbapenem alone or with 50µM ZN148
Method: as §1

Q: For `CN(C[C@H](O)[C@@H](O)[C@H](O)[C@H](O)CO)C(=O)c1ccc(CN(Cc2ccccn2)Cc2ccccn2)nc1` [ZN148], which “zinc removed from enzyme” value [1] is on record?
A: ~1.8 molar equivalents

Q: `C[C@@H](O)[C@H]1C(=O)N2C(C(=O)O)=C(S[C@@H]3CN[C@H](C(=O)N(C)C)C3)[C@H](C)[C@H]12` [meropenem] was tested. Which MIC ([2]; NDM-1 + GES-2 strain) did it give?
A: > 64 µg/mL

Q: What about the MIC ([2]; NDM-5 + OXA-48 strain) of the same compound?
A: > 64 µg/mL

Q: What about the MIC ([2]; NDM-5 + OXA-232 strains, one value per strain) of the same compound?
A: > 64 µg/mL

Q: And the MIC ([3]; NDM + OXA-48-like strains, meropenem alone or with 50µM ZN148, one value per strain)?
A: > 64 µg/mL

Q: What about the MIC ([3]; NDM-1 + OXA-181 strain, meropenem alone or with 50µM ZN148) of the same compound?
A: > 64 µg/mL

Q: What about the MIC ([3]; NDM-5 + OXA-181 strains, carbapenem alone or with 50µM ZN148, one value per strain) of the same compound?
A: > 64 µg/mL

Q: What about the MIC ([4]; Escherichia coli, KPC-2 strains, one value per strain, read-out: MIC) of the same compound?
A: 8 µg/mL

Q: What about the MIC ([4]; Escherichia coli, KPC-3 strain, read-out: MIC) of the same compound?
A: 2 µg/mL

Q: And the MIC ([4]; KPC-2 strains, one value per strain, listed as MEM)?
A: 4 µg/mL
